Measured values as given in ChEMBL document CHEMBL1201862, “PubChem BioAssay data set” (2004).
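48-hour exposure; five concentrations; linearly interpolated endpoints. GI50 = concentration required for 50% inhibition of growth.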 The source made the active and inactive calls. Rule as the data show it: active = GI50 up to about 1.1 µM and inactive = higher.

How the values were obtained:
Test in all cases: growth of human tumour cells (NCI), 48 h
DU-145 = system: DU-145
Malme-3M = system: Malme-3M
NCI/ADR-RES = system: NCI/ADR-RES
ACHN = system: ACHN
SR = system: SR
HOP-62 = system: HOP-62
SK-OV-3 = system: SK-OV-3
MDA-MB-435 = system: MDA-MB-435
SNB-75 = system: SNB-75
NCI-H226 = system: NCI-H226
OVCAR-5 = system: OVCAR-5
HCC 2998 = system: HCC 2998
RXF 393 = system: RXF 393
SN12C = system: SN12C
HOP-92 = system: HOP-92
786-0 = system: 786-0
TK-10 = system: TK-10
MCF7 = system: MCF7
SF-539 = system: SF-539
Hs-578T = system: Hs-578T
BT-549 = system: BT-549
HCT-15 = system: HCT-15
K562 = system: K562
SK-MEL-28 = system: SK-MEL-28
HCT-116 = system: HCT-116
NCI-H460 = system: NCI-H460
EKVX = system: EKVX
SK-MEL-5 = system: SK-MEL-5
CCRF-CEM = system: CCRF-CEM
UACC-62 = system: UACC-62
KM12 = system: KM12
IGROV-1 = system: IGROV-1
PC-3 = system: PC-3
OVCAR-3 = system: OVCAR-3
NCI-H23 = system: NCI-H23
SNB-19 = system: SNB-19
UACC-257 = system: UACC-257
HL-60 = system: HL-60
HT-29 = system: HT-29
SF-295 = system: SF-295
M14 = system: M14
U-251 = system: U-251
MDA-N = system: MDA-N
OVCAR-8 = system: OVCAR-8
SF-268 = system: SF-268
MOLT-4 = system: MOLT-4
UO-31 = system: UO-31
A498 = system: A498
T47D = system: T47D
RPMI-8226 = system: RPMI-8226
SW-620 = system: SW-620
A549 = system: A549
MDA-MB-231 = system: MDA-MB-231
COLO 205 = system: COLO 205
NCI-H522 = system: NCI-H522
CAKI-1 = system: CAKI-1
LOX IMVI = system: LOX IMVI
OVCAR-4 = system: OVCAR-4
SK-MEL-2 = system: SK-MEL-2

COC(=O)C(NC(=O)c1ccccc1)c1ccco1 (stereo not given)
GI50 (DU-145): > 100 µM (inactive)
GI50 (Malme-3M): > 100 µM (inactive)
GI50 (NCI/ADR-RES): > 100 µM (inactive)
GI50 (ACHN): > 100 µM (inactive)
GI50 (SR): > 100 µM (inactive)
GI50 (HOP-62): > 100 µM (inactive)
GI50 (SK-OV-3): > 100 µM (inactive)
GI50 (MDA-MB-435): > 100 µM (inactive)
GI50 (SNB-75): > 100 µM (inactive)
GI50 (NCI-H226): > 100 µM (inactive)
GI50 (OVCAR-5): > 100 µM (inactive)
GI50 (HCC 2998): > 100 µM (inactive)
GI50 (RXF 393): > 100 µM (inactive)
GI50 (SN12C): > 100 µM (inactive)
GI50 (HOP-92): > 100 µM (inactive)
GI50 (786-0): > 100 µM (inactive)
GI50 (TK-10): > 100 µM (inactive)
GI50 (MCF7): > 100 µM (inactive)
GI50 (SF-539): > 100 µM (inactive)
GI50 (Hs-578T): > 100 µM (inactive)
GI50 (BT-549): > 100 µM (inactive)
GI50 (HCT-15): > 100 µM
GI50 (K562): > 100 µM (inactive)
GI50 (SK-MEL-28): > 100 µM (inactive)
GI50 (HCT-116): > 100 µM (inactive)
GI50 (NCI-H460): > 100 µM (inactive)
GI50 (EKVX): > 100 µM (inactive)
GI50 (SK-MEL-5): > 100 µM (inactive)
GI50 (CCRF-CEM): > 100 µM (inactive)
GI50 (UACC-62): > 100 µM (inactive)
GI50 (KM12): > 100 µM (inactive)
GI50 (IGROV-1): > 100 µM (inactive)
GI50 (PC-3): > 100 µM (inactive)
GI50 (OVCAR-3): > 100 µM (inactive)
GI50 (NCI-H23): > 100 µM (inactive)
GI50 (SNB-19): > 100 µM (inactive)
GI50 (UACC-257): > 100 µM (inactive)
GI50 (HL-60): > 100 µM (inactive)
GI50 (HT-29): > 100 µM (inactive)
GI50 (SF-295): > 100 µM (inactive)
GI50 (M14): > 100 µM (inactive)
GI50 (U-251): > 100 µM (inactive)
GI50 (MDA-N): > 100 µM (inactive)
GI50 (OVCAR-8): > 100 µM (inactive)
GI50 (SF-268): > 100 µM (inactive)
GI50 (MOLT-4): > 100 µM (inactive)
GI50 (UO-31): > 100 µM (inactive)
GI50 (A498): > 100 µM (inactive)
GI50 (T47D): > 100 µM (inactive)
GI50 (RPMI-8226): > 100 µM (inactive)
GI50 (SW-620): > 100 µM (inactive)
GI50 (A549): > 100 µM (inactive)

CCCCc1ccc(Nc2nc(SC)c3[nH]cnc3n2)cc1
GI50 (DU-145): > 100 µM (inactive)
GI50 (Malme-3M): > 100 µM (inactive)
GI50 (NCI/ADR-RES): 23.6 µM (inactive)
GI50 (ACHN): 12.7 µM (inactive)
GI50 (SR): 2.01 µM (inactive)
GI50 (HOP-62): 10.2 µM (inactive)
GI50 (SK-OV-3): > 43.5 µM (inactive)
GI50 (MDA-MB-231): 84.3 µM (inactive)
GI50 (MDA-MB-435): 5.33 µM (inactive)
GI50 (SNB-75): > 100 µM (inactive)
GI50 (NCI-H226): > 73.6 µM (inactive)
GI50 (OVCAR-5): > 100 µM (inactive)
GI50 (HCC 2998): > 80.4 µM (inactive)
GI50 (RXF 393): 28.2 µM (inactive)
GI50 (SN12C): > 84.9 µM (inactive)
GI50 (HOP-92): 15.5 µM (inactive)
GI50 (786-0): 16.4 µM (inactive)
GI50 (TK-10): 45.2 µM (inactive)
GI50 (MCF7): > 24.4 µM (inactive)
GI50 (SF-539): 36.6 µM (inactive)
GI50 (Hs-578T): 43 µM (inactive)
GI50 (BT-549): > 100 µM (inactive)
GI50 (HCT-15): > 32.9 µM
GI50 (COLO 205): > 91.2 µM (inactive)
GI50 (K562): 3.61 µM (inactive)
GI50 (SK-MEL-28): > 100 µM (inactive)
GI50 (HCT-116): 23.6 µM (inactive)
GI50 (NCI-H460): 13.9 µM (inactive)
GI50 (EKVX): 24.9 µM (inactive)
GI50 (SK-MEL-5): 17.7 µM (inactive)
GI50 (CCRF-CEM): 6.19 µM (inactive)
GI50 (UACC-62): 45.5 µM (inactive)
GI50 (KM12): 17.9 µM (inactive)
GI50 (IGROV-1): 24.7 µM (inactive)
GI50 (PC-3): > 100 µM (inactive)
GI50 (OVCAR-3): > 55 µM (inactive)
GI50 (NCI-H23): 28.6 µM (inactive)
GI50 (SNB-19): 36.6 µM (inactive)
GI50 (UACC-257): > 100 µM (inactive)
GI50 (HL-60): 3.43 µM (inactive)
GI50 (HT-29): 15.8 µM (inactive)
GI50 (NCI-H522): 20.6 µM (inactive)
GI50 (SF-295): > 47.9 µM (inactive)
GI50 (CAKI-1): 16.9 µM (inactive)
GI50 (LOX IMVI): > 46.6 µM (inactive)
GI50 (M14): > 100 µM (inactive)
GI50 (U-251): 26.2 µM (inactive)
GI50 (OVCAR-8): 30.2 µM (inactive)
GI50 (OVCAR-4): > 100 µM (inactive)
GI50 (SF-268): 65.5 µM (inactive)
GI50 (MOLT-4): 2.81 µM (inactive)
GI50 (UO-31): > 78.2 µM (inactive)
GI50 (A498): 18.7 µM (inactive)
GI50 (T47D): > 100 µM (inactive)
GI50 (RPMI-8226): > 56 µM (inactive)
GI50 (SK-MEL-2): > 38.5 µM (inactive)
GI50 (SW-620): 24.5 µM (inactive)
GI50 (A549): > 100 µM (inactive)
